Measured values published in patent US20230331739A1, “INDOLO HEPTAMYL OXIME ANALOG CRYSTAL AS PARP INHIBITOR AND METHOD FOR PREPARING SAME” (CHIA TAI TIANQING PHARMACEUTICAL GROUP CO., LTD., priority 2020, published 2023).
Where two headings read alike, the source gives them in different places.

Tests used:
PARP1 = PARP1 (Homo sapiens (Human), UniProt P09874); experiment: PARP-1 enzymatic assay (HT Universal Chemiluminescent PARP Assay kit); format: biochemical
Description: Materials: test compounds; HT Universal Chemiluminescent PARP Assay kit (purchased from TREVIGEN); PBS (phosphate buffer saline, purchased from Wisent); Triton X-100 (purchased from Macklin); Envision Multimode Plate Reader (PerkinElmer).
1. Washing solution: Triton X-100 was added to 1×PBS with a final concentration of Triton X-100 of 0.1%.
2. 1×PARP buffer: The 20×PARP buffer in the kit was 20-fold diluted with water to prepare a 1×PARP buffer, which was used to prepare the compounds, enzyme solutions and substrate solutions.
3. 1×Strep-Diluent solution: The 10×Strep-diluent in the kit was 10-fold diluted with water to prepare a 1×Strep-diluent solution.
The test compounds were diluted from 200 μM to 2.56 nM. The DMSO concentration was 100%. 2 μL of each of the inhibitors at various concentration gradients was added to a compound intermediate plate, and 38 μL of the 1×PARP buffer was then added. The two were mixed well for use, and the DMSO concentration was 5% at this time.
a) The 1×PARP buffer was added to a test plate at 50 μL per well, and the test plate was incubated at 25° C. for 30 min. […]
PeroxyGlow A and B in the kit were mixed at a ratio of 1:1, and the mixed solution was added to the test plate at 100 μL per well. Chemiluminescence was immediately read using a PerkinElmer Envision Multimode Plate Reader with an integration time of 0.5 s. […]

CYP2D6 = CYP2D6 (Homo sapiens (Human), UniProt P10635); experiment: Inhibition against cytochrome P450 isoenzymes, CYP2D6; format: in vitro ADME; settings: human liver microsomes
CYP2D6, sequence (P10635 whole entry): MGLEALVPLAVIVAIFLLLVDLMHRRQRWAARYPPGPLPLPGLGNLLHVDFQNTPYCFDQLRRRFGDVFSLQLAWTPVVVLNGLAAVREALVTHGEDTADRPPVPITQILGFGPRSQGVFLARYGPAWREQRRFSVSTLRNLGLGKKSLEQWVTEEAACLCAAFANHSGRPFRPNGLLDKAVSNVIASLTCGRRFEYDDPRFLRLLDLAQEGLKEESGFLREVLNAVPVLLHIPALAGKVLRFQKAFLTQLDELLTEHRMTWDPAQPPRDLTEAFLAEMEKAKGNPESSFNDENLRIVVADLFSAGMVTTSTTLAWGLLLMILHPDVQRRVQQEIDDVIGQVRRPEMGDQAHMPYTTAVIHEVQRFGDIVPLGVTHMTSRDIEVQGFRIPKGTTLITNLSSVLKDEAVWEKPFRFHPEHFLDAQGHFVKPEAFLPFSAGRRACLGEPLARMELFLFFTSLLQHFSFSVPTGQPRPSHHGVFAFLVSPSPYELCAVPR
Description: The inhibition of the test compound against different subtypes of the human cytochrome P450 isoenzyme was determined. The test compound, a standard inhibitor (100×final concentration) and a mixed substrate working solution were prepared; the microsomes frozen in a refrigerator at −80° C. were taken out and thawed. […]

[1] = Single-dose pharmacokinetic study in mice; format: in vivo, male C57BL/6 mice
Description: Objectives: To evaluate the pharmacokinetic behavior in male C57BL/6 mice and to determine the drug concentrations of the compound in the plasma, liver and cerebrospinal fluid after a single dose.
Procedures: Healthy adult male C57BL/6 mice were selected for intragastric administration. The candidate compound was mixed with an appropriate amount of 10% DMSO/90% (20% hydroxypropyl-@-cyclodextrin), vortexed and sonicated to prepare a 0.5 mg/mL clear solution for later use. After the mice were administered intravenously at 1 mg/kg and orally at 5 mg/kg, whole blood was collected at certain time points. Plasma was separated, and liver and cerebrospinal fluid were collected. After pretreatment of the samples, the drug concentration was measured by LC-MS/MS, and pharmacokinetic parameters were calculated using Phoenix WinNonlin software.

[2] = male, C57BL/6, mouse, plasma, IV: 1 mg/kg PO: 5 mg/kg

PARP1, sequence (P09874 whole entry): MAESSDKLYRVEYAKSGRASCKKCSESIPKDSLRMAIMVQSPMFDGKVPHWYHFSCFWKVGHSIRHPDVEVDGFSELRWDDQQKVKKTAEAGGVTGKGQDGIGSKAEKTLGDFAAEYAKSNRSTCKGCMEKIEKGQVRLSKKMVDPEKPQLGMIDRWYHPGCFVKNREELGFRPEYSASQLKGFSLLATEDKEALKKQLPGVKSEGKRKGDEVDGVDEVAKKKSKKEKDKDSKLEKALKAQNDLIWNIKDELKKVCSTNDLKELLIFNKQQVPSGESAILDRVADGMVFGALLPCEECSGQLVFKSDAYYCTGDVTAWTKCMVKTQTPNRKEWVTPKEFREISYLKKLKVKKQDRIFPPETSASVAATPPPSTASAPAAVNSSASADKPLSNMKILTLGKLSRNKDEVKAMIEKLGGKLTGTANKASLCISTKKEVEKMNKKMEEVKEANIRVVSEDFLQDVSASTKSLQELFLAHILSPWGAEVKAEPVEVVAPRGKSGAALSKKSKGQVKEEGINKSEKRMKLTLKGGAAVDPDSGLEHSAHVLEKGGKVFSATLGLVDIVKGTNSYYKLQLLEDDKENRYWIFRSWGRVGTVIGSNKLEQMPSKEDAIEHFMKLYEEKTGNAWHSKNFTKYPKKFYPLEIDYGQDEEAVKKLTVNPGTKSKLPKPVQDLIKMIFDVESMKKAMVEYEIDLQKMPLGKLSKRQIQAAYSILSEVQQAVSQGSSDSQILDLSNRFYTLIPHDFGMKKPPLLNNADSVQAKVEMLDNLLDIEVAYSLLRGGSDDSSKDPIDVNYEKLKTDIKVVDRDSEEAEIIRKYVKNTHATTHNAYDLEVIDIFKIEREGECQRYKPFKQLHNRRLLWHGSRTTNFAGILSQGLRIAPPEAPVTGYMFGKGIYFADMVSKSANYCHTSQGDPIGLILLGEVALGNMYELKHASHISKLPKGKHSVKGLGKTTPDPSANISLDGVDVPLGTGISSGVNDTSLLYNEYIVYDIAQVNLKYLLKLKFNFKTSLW

In the case of `C[C@]1(c2ccc(-c3[nH]c4cc(F)cc5c4c3CONC5=O)cc2)CCCN1` [Compound 1], the IC50 (PARP1) is reported as 0.0023 µM, the IC50 (CYP2D6) is reported as 11.6 µM and the Maximum concentration ([1]; IV: 1 mg/kg PO: 5 mg/kg) is reported as 240 nM. It also gave an AUC(0-t) ([1]; male, C57BL/6, mouse, plasma, IV 1 mg/kg, read-out: AUC0-last (intravenous injection)) of 0.958 µM·h, a bioavailability [1, 2] of 24.8% and a half-life [1, 2] of 3.02 h. For the same molecule, the Vd ([1]; male, C57BL/6, mouse, plasma, IV: 1 mg/kg PO: 5 mg/kg, read-out: Apparent volume of distribution) was 9.44 L/kg, the clearance ([1]; male, C57BL/6, mouse, plasma, IV: 1 mg/kg PO: 5 mg/kg, read-out: Clearance rate) was 41 mL/min/kg and the AUC(0-t) ([1]; male, C57BL/6, mouse, plasma, PO 5 mg/kg, read-out: AUC0-last (oral)) was 1.19 µM·h.
